Assays:
Assay type in all cases: ADME
[1] = target: T1, Cytochrome P450 1A2 (Homo sapiens, UniProt P05177); test: Inhibition of human CYP1A2
T1 sequence (P05177 whole entry): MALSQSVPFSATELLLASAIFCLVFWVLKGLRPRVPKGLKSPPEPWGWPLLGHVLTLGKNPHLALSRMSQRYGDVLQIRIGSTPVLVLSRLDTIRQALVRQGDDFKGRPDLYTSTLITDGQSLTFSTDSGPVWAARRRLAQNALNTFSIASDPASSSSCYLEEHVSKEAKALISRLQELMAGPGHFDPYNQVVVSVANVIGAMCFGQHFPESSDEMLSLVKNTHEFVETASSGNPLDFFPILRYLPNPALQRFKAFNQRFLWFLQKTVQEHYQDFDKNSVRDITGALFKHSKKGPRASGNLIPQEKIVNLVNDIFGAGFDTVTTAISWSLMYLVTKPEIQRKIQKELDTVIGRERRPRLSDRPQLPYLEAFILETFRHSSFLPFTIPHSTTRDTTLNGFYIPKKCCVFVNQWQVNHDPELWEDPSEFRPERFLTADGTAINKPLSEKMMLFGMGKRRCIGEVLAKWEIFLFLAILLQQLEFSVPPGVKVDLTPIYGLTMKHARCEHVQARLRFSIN

[2] = target: Cytochrome P450 2C9 (Homo sapiens, UniProt P11712); test: Inhibition of human CYP2C9
[3] = target: Cytochrome P450 3A4 (Homo sapiens, UniProt P08684); test: Inhibition of human CYP3A4
[4] = target: Cytochrome P450 2D6 (Homo sapiens, UniProt P10635); test: Inhibition of human CYP2D6
Chain of Cytochrome P450 2D6 (P10635 whole entry): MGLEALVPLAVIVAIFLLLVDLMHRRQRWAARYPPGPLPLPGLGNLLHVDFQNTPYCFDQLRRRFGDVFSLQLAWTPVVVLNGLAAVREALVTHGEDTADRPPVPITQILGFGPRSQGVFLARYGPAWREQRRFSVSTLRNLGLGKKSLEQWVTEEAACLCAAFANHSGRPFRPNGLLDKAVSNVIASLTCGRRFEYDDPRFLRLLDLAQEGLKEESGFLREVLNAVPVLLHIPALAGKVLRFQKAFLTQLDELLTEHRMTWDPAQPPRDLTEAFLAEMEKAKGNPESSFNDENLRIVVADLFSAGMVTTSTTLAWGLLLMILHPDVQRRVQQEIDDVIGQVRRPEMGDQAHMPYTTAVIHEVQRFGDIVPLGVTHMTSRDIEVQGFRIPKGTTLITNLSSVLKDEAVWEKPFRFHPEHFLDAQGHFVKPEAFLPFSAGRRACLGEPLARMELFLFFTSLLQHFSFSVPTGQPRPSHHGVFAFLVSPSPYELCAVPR

Chain of Cytochrome P450 2C9 (P11712 whole entry): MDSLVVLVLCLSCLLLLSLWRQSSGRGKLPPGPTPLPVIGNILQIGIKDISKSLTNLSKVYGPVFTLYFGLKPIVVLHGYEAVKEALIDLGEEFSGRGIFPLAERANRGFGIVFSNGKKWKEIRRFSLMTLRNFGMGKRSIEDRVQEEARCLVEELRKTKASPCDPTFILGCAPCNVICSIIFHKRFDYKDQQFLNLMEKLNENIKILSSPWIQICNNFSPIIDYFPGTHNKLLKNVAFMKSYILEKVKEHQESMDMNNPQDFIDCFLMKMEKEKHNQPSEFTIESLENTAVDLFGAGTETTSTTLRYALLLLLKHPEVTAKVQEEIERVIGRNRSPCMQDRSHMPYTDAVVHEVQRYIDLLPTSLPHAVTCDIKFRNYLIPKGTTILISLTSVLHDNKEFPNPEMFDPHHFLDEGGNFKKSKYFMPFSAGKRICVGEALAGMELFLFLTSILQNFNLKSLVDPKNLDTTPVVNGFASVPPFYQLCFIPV
Chain of Cytochrome P450 3A4 (P08684 whole entry): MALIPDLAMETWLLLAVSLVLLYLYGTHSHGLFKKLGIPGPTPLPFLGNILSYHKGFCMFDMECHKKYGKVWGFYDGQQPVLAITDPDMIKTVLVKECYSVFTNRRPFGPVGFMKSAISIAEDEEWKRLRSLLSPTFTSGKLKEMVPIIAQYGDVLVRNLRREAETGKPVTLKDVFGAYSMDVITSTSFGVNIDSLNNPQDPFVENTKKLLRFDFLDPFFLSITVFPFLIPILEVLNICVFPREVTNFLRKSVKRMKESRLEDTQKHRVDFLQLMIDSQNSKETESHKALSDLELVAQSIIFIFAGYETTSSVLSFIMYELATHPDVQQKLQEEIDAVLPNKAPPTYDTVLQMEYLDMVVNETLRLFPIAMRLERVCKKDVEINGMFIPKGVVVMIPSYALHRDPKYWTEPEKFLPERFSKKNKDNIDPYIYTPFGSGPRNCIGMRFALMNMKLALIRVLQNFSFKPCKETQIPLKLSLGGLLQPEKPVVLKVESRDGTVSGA

SMILES	IC50 [1] [µM]	IC50 [2] [µM]	IC50 [3] [µM]	IC50 [4] [µM]
O=c1cc(-c2ccccc2)oc2cc(O)ccc12 [7-HYDROXYFLAVONE]	0.24	–	–	–
O=c1cc(-c2ccccc2)oc2cc(O)cc(O)c12 [CHRYSIN]	–	5.23	> 50	> 50
